Entries after “also recorded” stand apart in the source; their conditions may differ.
Test system: MPG2
Assay: Protein-DNA DAPPL binding assay on a protein microarray of two human TF proteins and BSA, ligation products detected by PCR
Conditions: array of two human TF proteins and BSA; Sanger sequencing, six of six clones as expected
Text: A DAPPL approach was applied to establish a comprehensive screen for protein-DNA interactions. As illustrated in FIG. 19A and FIG. […] Meanwhile, a pool of DNA polynucleotides was synthesized that each contains eight random nucleotides with a CpG in the middle and two fixed sequences on both sides. After a double-stranded DNA pool was made with a Klenow reaction, bacterial enzyme SssI is used to methylate the CpG, followed by treatment with a T4 DNA polymerase to generate a 5′-overhang. This pool of 65,536 species was then incubated on the TF array, washed, and the captured DNA fragments were ligated to the address polynucleotides. In each ligated sequence, a mCpG containing 8-mer sequence is now connected to an address oligo representing the TF protein that has captured this 8-mer in the binding assay. Therefore, it is an “all-to-all” screening approach. […] The ligated products were then recovered from the slide and PCR-amplified. […] Bioinformatics analyses were performed to determine whether there was any enrichment of consensus motifs for each TF protein.
After cloning the PCR fragments, Sanger sequencing was performed to determine the PCR-amplified sequences. Six of six sequenced clones gave the expected sequences from the ligation on the array.

## M62: methylated DNA motif M62 (SEQ ID NO: 10) used as probe on the TF protein microarray (DNA ATATGCATCG; methylated DNA motif, methylated positions not given here)
  capture of the methylated DNA motif by the TF spot (recovery of ligation products by PCR): captures; also recorded: successfully recovered using a PCR reaction only from the expected TF spot

From patent US20160060687A1, “METHODS AND COMPOSITIONS TO IDENTIFY, QUANTIFY, AND CHARACTERIZE TARGET ANALYTES AND BINDING MOIETIES” (CDI Laboratories, Inc., priority 2014, published 2016)
